Earlier results on one molecule are cited in patent US20070287647A1, “Nail Polish Remover” (priority 2006, published 2007).

For this data set the following is noted: in vapor.

For the molecule `CC#N` [acetonitrile], the inhalation toxicity level entry is given as “about 60 ppm”.
